We go through 25 molecules from ChEMBL document CHEMBL4364264, “Tetrazole hybrids with potential anticancer activity” (Eur J Med Chem, 2019).

Structures are written as SMILES. ≈ marks a conversion by molar mass, not a printed value.

One assay deals with HCT-116. The assay is described as follows: Cytotoxicity against human HCT116 cells. Type of assay: functional, cell-based.
In assay [1] the test system is PC-3. The assay is described as follows: Cytotoxicity against human PC3 cells. Type of assay: functional, cell-based.
The next assay concerns Caco-2. The assay is described as follows: Cytotoxicity against human Caco2 cells. Type of assay: functional, cell-based.
In assay [2] the test system is HeLa. As to the kind of experiment: Cytotoxicity against human HeLa cells. Type of assay: functional, cell-based.
Assay [3] has as its system MCF7. The assay is described as follows: Cytotoxicity against human MCF7 cells. It is filed as functional, cell-based.
Another assay relates to SK-BR-3. As to the kind of experiment: Cytotoxicity against human SKBR3 cells. Type of assay: functional, cell-based.
The test system of assay [4] is MDA-MB-231. As to the kind of experiment: Cytotoxicity against human MDA-MB-231 cells. It is filed as functional.
The subject of another assay is SiHa. As to the kind of experiment: Cytotoxicity against human SiHa cells. Type of assay: functional.
The subject of another assay is PANC-1. As to the kind of experiment: Cytotoxicity against human PANC1 cells. It is filed as functional.
In assay [5] the test system is MDA-MB-231. The assay is described as follows: Growth inhibition of human MDA-MB-231 cells by microtiter plate assay. Type of assay: functional.
A further assay has as its system DU-145. As to the kind of experiment: Growth inhibition of human DU145 cells by microtiter plate assay. It is filed as functional.
Assay [6] relates to MCF7. The assay is described as follows: Growth inhibition of human MCF7 cells by microtiter plate assay. It is filed as functional.
In another assay the test system is HT-29. As to the kind of experiment: cells. As to conditions: Homo sapiens, HT-29, 48 h.
In assay [7] the test system is PC-3. As to the kind of experiment: cells. Conditions: Homo sapiens, PC-3, 48 h.
The subject of a further assay is HepG2. The assay is described as follows: Growth inhibition of human HepG2 cells. It is filed as functional.
Assay [8] deals with HeLa. As to the kind of experiment: Growth inhibition of human HeLa cells. It is filed as functional.
Assay [9] relates to MCF7. As to the kind of experiment: Growth inhibition of human MCF7 cells. Type of assay: functional.

Description for HT-29: Antiproliferative activity against human HT-29 cells after 48 hrs by MTT assay

For the molecule `O=C(/C=C/c1ccccc1Oc1nnnn1-c1ccccc1)c1ccccc1`, the values for the half-maximal inhibitory concentration (IC50) in the assay on HCT-116 and in the assay with PC-3 [1] were 0.6 µg/mL (≈ 1.63 µM) and 1.6 µg/mL (≈ 4.34 µM), respectively.

With `COc1ccccc1C1C(c2nnn[nH]2)=C(N)Oc2ccc3ccccc3c21` (stereo not drawn), the IC50 in the assay with Caco-2, in the assay with HeLa [2], in the assay with MCF7 [3] and with SK-BR-3 was 15 to 87 µM throughout.

Regarding `CCn1cc(C(=O)O)c(=O)c2cnc(N3CCN(C(=O)CCSc4nnnn4-c4ccc(Br)cc4)CC3)nc21`, the GI50 in the assay on MDA-MB-231 [4] amounted to 220 nM; in the assay on SiHa it was 80 nM; in the assay on PANC-1 it was 70 nM.

With `CCc1cc2c(cc1O)CC[C@@H]1[C@@H]2CC[C@]2(C)[C@@H](Cc3nnnn3C)CC[C@@H]12`, the GI50 in the assay with MDA-MB-231 [5], with DU-145 and in the assay with MCF7 [6] was 0.34 to 100 µM throughout.

With `COc1ccc(C2C(c3nnn[nH]3)=C(N)Oc3ccc4ccccc4c32)cc1` (stereo not drawn), the concentration for half-maximal inhibition (IC50) with Caco-2, with HeLa [2], in the assay with MCF7 [3] and with SK-BR-3 was 15 to 87 µM throughout.

With `O=C(O)Cn1nnc(-c2cn(-c3ccccc3)nc2-c2ccccc2)n1`, the IC50 with HT-29 was determined as 86.3 µM; in the assay on PC-3 [7] it was 70.2 µM.

In the case of `COc1cc(-n2nnnc2SCCC(=O)N2CCN(c3cc4c(cc3F)c(=O)c(C(=O)O)cn4C3CC3)CC2)cc(OC)c1OC`, the concentration for 50% growth inhibition (GI50) with MDA-MB-231 [4], in the assay on SiHa and in the assay with PANC-1 was 66 to 1300 nM throughout.

`COc1cc(/C=C/C(=O)c2ccccc2OC)ccc1Oc1nnnn1-c1ccccc1`: the IC50 in the assay on HCT-116 and in the assay on PC-3 [1] was 2.5 to 7 µg/mL (≈ 5.84 to 16.3 µM) in each case.

On to `COc1cc(/C=C/C(=O)c2ccc(Br)cc2)ccc1Oc1nnnn1-c1ccccc1`, for which the IC50 in the assay with HCT-116 and in the assay with PC-3 [1] was 2.5 to 7 µg/mL (≈ 5.24 to 14.7 µM) each time.

`O=C(O)c1cn(C2CC2)c2cc(N3CCN(C(=O)CCSc4nnnn4-c4ccc(F)c(F)c4F)CC3)c(F)cc2c1=O`: the GI50 with MDA-MB-231 [4], in the assay on SiHa and in the assay with PANC-1 was 66 to 1300 nM each time.

Consider `CN(C)C(=O)NC(c1ccc(Cl)cc1)n1cnnn1` (stereo not drawn), for which the GI50 with HepG2, in the assay on HeLa [8] and in the assay on MCF7 [9] was 8.2 to 41 µM throughout.

As for `Cc1ccc(-c2nn(-c3ccccc3)cc2-c2nnn(CC(=O)O)n2)cc1`, the IC50 in the assay with HT-29 and in the assay on PC-3 [7] was 7.23 to 48.3 µM throughout.

As for `COc1ccc(C2C(c3nnn[nH]3)=C(N)Oc3ccc4ccccc4c32)c(OC)c1` (stereo not drawn), the 50% inhibitory concentration (IC50) with Caco-2, with HeLa [2], in the assay on MCF7 [3] and in the assay on SK-BR-3 was 15 to 26 µM each time.

As to `COc1cccc(C2C(c3nnn[nH]3)=C(N)Oc3ccc4ccccc4c32)c1OC` (stereo not drawn), the 50% inhibitory concentration (IC50) in the assay on Caco-2, in the assay on HeLa [2], in the assay with MCF7 [3] and in the assay on SK-BR-3 was 15 to 87 µM in each case.

Regarding `NC(=S)NNC(c1ccc(Cl)cc1)n1cnnn1` (stereo not drawn), the GI50 with HepG2, in the assay with HeLa [8] and in the assay on MCF7 [9] was 5.2 to 29.8 µM in each case.

On to `CCn1cc(C(=O)O)c(=O)c2cnc(N3CCN(C(=O)CCSc4nnnn4-c4ccc(F)c(F)c4F)CC3)nc21`, for which the concentration for 50% growth inhibition (GI50) in the assay on MDA-MB-231 [4], with SiHa and in the assay on PANC-1 was 66 to 1300 nM each time.

As for `O=C(O)c1cn(C2CC2)c2cc(N3CCN(C(=O)CCSc4nnnn4Cc4ccccc4)CC3)c(F)cc2c1=O`, the 50% growth inhibitory concentration (GI50) with MDA-MB-231 [4], with SiHa and in the assay with PANC-1 was 85 to 1150 nM in each case.

Consider `NC(=S)NNC(c1ccccc1)n1cnnn1` (stereo not drawn), for which the GI50 in the assay with HepG2, in the assay with HeLa [8] and with MCF7 [9] was 5.2 to 8.1 µM throughout.

Regarding `COc1ccccc1-c1nn(-c2ccccc2)cc1-c1nnn(CC(=O)O)n1`, the concentration for half-maximal inhibition (IC50) in the assay with HT-29 and with PC-3 [7] was 7.23 to 48.3 µM each time.

As for `O=C(O)c1cn(C2CC2)c2cc(N3CCN(C(=O)CCSc4nnnn4-c4ccc(C(F)(F)F)cc4)CC3)c(F)cc2c1=O`, the GI50 in the assay with MDA-MB-231 [4], in the assay on SiHa and in the assay with PANC-1 was 66 to 1300 nM in each case.

Regarding `COc1cc(/C=C/C(=O)c2cccs2)ccc1Oc1nnnn1-c1ccccc1`, the half-inhibitory concentration (IC50) was found to be 2.5 µg/mL (≈ 6.18 µM) with HCT-116, 5 µg/mL (≈ 12.4 µM) in the assay on PC-3 [1] and 2.9 µg/mL in the assay on MCF7 [3].

Turning to `COc1cc(/C=C/C(=O)c2ccco2)ccc1Oc1nnnn1-c1ccccc1`, the IC50 in the assay on HCT-116 and in the assay on PC-3 [1] was 2.5 to 7 µg/mL (≈ 6.44 to 18 µM) each time.

For the molecule `O=C(O)c1cn(C2CC2)c2cc(N3CCN(C(=O)CCSc4nnnn4-c4ccccc4)CC3)c(F)cc2c1=O`, the GI50 in the assay with MDA-MB-231 [4], with SiHa and in the assay with PANC-1 was 85 to 1150 nM each time.

Turning to `CCn1cc(C(=O)O)c(=O)c2cnc(N3CCN(C(=O)CCSc4nnnn4-c4ccc(OC)c(OC)c4OC)CC3)nc21`, the GI50 in the assay with MDA-MB-231 [4], in the assay with SiHa and with PANC-1 was 66 to 1300 nM in each case.

For `NC1=C(c2nnn[nH]2)C(c2cccc(O)c2)c2c(ccc3ccccc23)O1` (stereo not drawn), the half-inhibitory concentration (IC50) in the assay on Caco-2, with HeLa [2], in the assay on MCF7 [3] and with SK-BR-3 was 15 to 87 µM each time.

The IC50 is the concentration at which inhibition is half-maximal. Read a low IC50 as greater potency in that assay. By GI50 is commonly meant the concentration that inhibits growth by half. Higher therefore signals less potent growth inhibition.
